Measurements from PubChem BioAssay (NCI).
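96-well plates; 48 h exposure; 5 concentrations. Endpoints by linear interpolation between flanking doses. Not reached: highest tested concentration assigned. GI50 marks 50% less growth. TGI marks complete inhibition of growth.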

Experiments:
Experiment in all cases: growth of human tumour cells (NCI), 48 h
SF-539 CNS = test system: SF-539 CNS
UACC-257 melanoma = test system: UACC-257 melanoma
RXF 393 renal = test system: RXF 393 renal
PC-3 prostate = test system: PC-3 prostate
SW-620 colon = test system: SW-620 colon
EKVX NSCLC = test system: EKVX NSCLC
UO-31 renal = test system: UO-31 renal
UACC-62 melanoma = test system: UACC-62 melanoma
NCI-H226 lung = test system: NCI-H226 lung
CAKI-1 renal = test system: CAKI-1 renal

| Structure (SMILES) | GI50 (SF-539 CNS) | TGI (SF-539 CNS) | GI50 (UACC-257 melanoma) | TGI (UACC-257 melanoma) | GI50 (RXF 393 renal) | TGI (RXF 393 renal) | GI50 (PC-3 prostate) | TGI (PC-3 prostate) | GI50 (SW-620 colon) | TGI (SW-620 colon) | GI50 (EKVX NSCLC) | TGI (EKVX NSCLC) | GI50 (UO-31 renal) | TGI (UO-31 renal) | GI50 (UACC-62 melanoma) | TGI (UACC-62 melanoma) | GI50 (NCI-H226 lung) | TGI (NCI-H226 lung) | GI50 (CAKI-1 renal) | TGI (CAKI-1 renal) |
| --- | --- | --- | --- | --- | --- | --- | --- | --- | --- | --- | --- | --- | --- | --- | --- | --- | --- | --- | --- | --- |
| O=C(Nc1ccc(I)cc1F)c1cc(F)ccc1O | 0.444 µM | 7.07 µM | 0.392 µM | 2.89 µM | 0.732 µM | 4.05 µM | 0.843 µM | 6.4 µM | 0.777 µM | > 34.7 µM | 1.4 µM | 9.01 µM | 0.236 µM | 1.34 µM | 0.259 µM | 0.853 µM | 0.985 µM | 5.66 µM | 0.342 µM | 2.86 µM |
| O=C(O)CNCc1c2ccccc2nc2ccccc12 | – | 87.2 µM | – | > 94.9 µM | – | > 78.3 µM | – | > 100 µM | – | > 100 µM | – | > 100 µM | – | > 91.5 µM | – | > 100 µM | – | > 100 µM | – | > 90.8 µM |
| CCc1cc(Nc2nccc(-c3c(-c4ccc(OC)c(C(=O)Nc5c(F)cccc5F)c4)nc4ccccn34)n2)c(OC)cc1N1CCC(N2CCN(S(C)(=O)=O)CC2)CC1 | > 100 µM | > 100 µM | > 40.1 µM | > 100 µM | > 47 µM | > 100 µM | > 100 µM | > 100 µM | > 100 µM | > 100 µM | > 100 µM | > 100 µM | > 100 µM | > 100 µM | > 100 µM | > 100 µM | > 69.3 µM | > 100 µM | > 100 µM | > 100 µM |
| CC[C@@]1(O)C(=O)N(CCN(C)C)Cc2c1cc1n(c2=O)Cc2cc3ccccc3nc2-1 | 3.77 µM | 13.1 µM | > 100 µM | > 100 µM | 71.4 µM | > 100 µM | 41.3 µM | > 100 µM | 34.6 µM | > 100 µM | > 67.9 µM | > 100 µM | 9.41 µM | > 100 µM | 7.2 µM | > 100 µM | 64.3 µM | > 100 µM | 4.27 µM | > 100 µM |
| Cc1cncc2cccc(S(=O)(=O)N3CCCNC[C@@H]3C)c12 | 3.17 µM | > 56.7 µM | > 100 µM | > 100 µM | 1.82 µM | 19.8 µM | 44.3 µM | > 100 µM | 8.06 µM | > 100 µM | 47.4 µM | > 100 µM | 2.16 µM | 23.8 µM | > 47 µM | > 100 µM | 2 µM | 46.1 µM | 5.91 µM | > 100 µM |
| COc1ccc(C2C3=C(COC3=O)N(CCO)c3cc4c(cc32)CCC4)cc1OC (stereo not drawn) | 0.496 µM | 6.43 µM | > 50 µM | > 50 µM | 0.207 µM | – | 0.524 µM | > 50 µM | 0.328 µM | > 50 µM | 2.95 µM | > 50 µM | 1.13 µM | > 50 µM | 0.318 µM | > 50 µM | > 10.7 µM | > 50 µM | 0.858 µM | > 50 µM |
| CCN(Cc1cccc(C)c1)c1ccc(CO)c(Cl)c1 | 17.3 µM | 32.4 µM | 0.188 µM | 0.525 µM | 6.52 µM | 21.9 µM | 12.6 µM | 26.1 µM | 2.33 µM | 18 µM | 14.6 µM | 30 µM | 6.47 µM | 20.6 µM | 0.158 µM | 1.11 µM | 0.121 µM | 0.252 µM | 1.31 µM | 14.7 µM |
| CCN(CC)CCn1nc2c3c(cccc3c1=O)-c1ccccc1-2 | 2.78 µM | 11.7 µM | 1.96 µM | 10.7 µM | 2.05 µM | 8.09 µM | 3.55 µM | 23.6 µM | 1.89 µM | > 50 µM | 2.33 µM | 38.7 µM | 1.25 µM | > 50 µM | 1.98 µM | 7.81 µM | 1.18 µM | 2.58 µM | 1.39 µM | > 50 µM |
| C/C(=C\COc1ccc2ccc(=O)oc2c1)CCC(=O)C(C)(C)O | – | 48.5 µM | – | > 100 µM | – | 39.9 µM | – | > 100 µM | – | 38.9 µM | – | > 100 µM | – | 91.9 µM | – | 37.1 µM | – | 69.7 µM | – | > 100 µM |
| CN1CCN(Cc2ccc(NC(=O)c3cncc(C#Cc4cncc5[nH]ncc45)c3)cc2C(F)(F)F)CC1 | 0.411 µM | 1.28 µM | 0.5 µM | 4.48 µM | 0.665 µM | 1.95 µM | 1.14 µM | 5.68 µM | 0.611 µM | 3.64 µM | 1.46 µM | 6.27 µM | 1.01 µM | 2.52 µM | 0.336 µM | 1.31 µM | 0.206 µM | 2.86 µM | 0.79 µM | 2.6 µM |
| O=[N+]([O-])C1(CO)COC2(OC1)c1ccccc1-c1ccccc12 | – | > 85.6 µM | – | > 100 µM | – | > 69.1 µM | – | > 100 µM | – | 44.5 µM | – | > 100 µM | – | > 100 µM | – | > 100 µM | – | > 100 µM | – | > 100 µM |
| NC(=S)c1cn(C2OC(CO)C(O)C2O)c2ncnc(N)c12 (stereo not drawn) | 0.27 µM | 1.55 µM | 0.166 µM | 0.571 µM | 0.307 µM | > 100 µM | 0.283 µM | > 20.1 µM | 0.105 µM | 0.592 µM | 0.25 µM | – | 0.275 µM | 1.68 µM | 0.124 µM | 0.406 µM | 0.602 µM | > 21.1 µM | 0.221 µM | 2.22 µM |
| O=C1c2ccccc2-c2c1c1ccccc1c(=O)n2CCCNCCO | 0.578 µM | 2.96 µM | 1.25 µM | 4.39 µM | 0.585 µM | 4.03 µM | 0.752 µM | 4.47 µM | 0.145 µM | 5.26 µM | 2.38 µM | 8.35 µM | 0.303 µM | 2.06 µM | 0.304 µM | 1.74 µM | 1.45 µM | 5.38 µM | 0.438 µM | 3.34 µM |
